Results reported in US20240216412A1, “OXIDIZED NICOTINAMIDE ADENINE DINUCLEOTIDE (NAD+) PRECURSOR TREATMENT FOR HEART FAILURE ALLEVIATION INDEPENDENT OF MITOCHONDRIAL PROTEIN DEACETYLATION” (University of Washington, priority 2022, published 2024).

Assays:
[1] = system: heart mRNA levels (Nppa, Ctgf, mtDNA encoded genes, PPARα/RXRα target genes); assay: RT-PCR of heart transcripts and mitochondrial RNA junctions; type: in vivo, mouse
Experimental: RNA Extraction and Quantitative Real-Time Polymerase Chain Reaction (RT-PCR). Total RNA was isolated from frozen heart tissue using the RNeasy fibrous Kit (Qiagen). Total RNA was reverse-transcribed into first-strand cDNA using Iscript (Bio-rad) according to manufacturer's guidelines. Real Time PCR was performed using SYBR green (Bio-Rad). Results of mRNA levels were normalized to 18S rRNA levels and reported as fold-change over control.

cardiac mitochondria = assay: Isolated cardiac mitochondria respiration (oxygen electrode); type: in vivo, mouse; conditions: both genotypes
Experimental: Mitochondrial Isolation from cardiac tissue. Hearts were excised from mice, the aortas and atria were removed. Heart tissues were rinsed briefly in ice-cold mitochondria isolation medium (MIM) (70 mM sucrose, 220 mM mannitol, 5 mM MOPS, 1 mM EDTA, 0.025% fatty acid-free BSA, pH 7.4 with 5M KOH) to remove residual blood. Tissues were minced on ice and resuspended in fresh MIM, followed by trypsin digestion (10 ug/ml) and incubated on ice for 10 min. Trypsin digestion was stopped by the addition of trypsin inhibitor (0.5 mg/ml) and additional BSA (1 mg/ml) to MIM. The tissue pellets were resuspended in fresh MIM containing 1 mg/ml BSA, and transferred to a Teflon-glass tube and homogenized on ice with a Teflon pestle. The homogenates were centrifuged for 10 min at 800×g at 4° C. The supernatants were collected and centrifuged for 10 min at 8,000×g at 4° C. The supernatant was discarded and the mitochondrial pellets were resuspended in MIM to wash. The resuspension was centrifuged for 10 min at 8,000×g at 4° C., and the supernatant discarded. The mitochondrial pellet was resuspended to a concentrated volume for protein quantification by BCA Assay (Pierce).
Mitochondrial respirations. Isolated mitochondria respiration experiments were performed in an Clark type oxygen electrode Oxytherm System (Hansatech Instruments) at 30C. Briefly, freshly isolated mitochondria were added to respiration buffer (125 mM KCl, 20 mM HEPES, 3 mM MgCl2, 400 μM EGTA, 5 mM KH2PO4, 0.2% BSA (fatty acid free), pH 7.2) and placed in the respiration chamber to measure baseline respiration (State 1). The change in oxygen levels following the immediate addition of substrates (pyruvate/malate (5 mM/2 mM) or palmitoylcarnitine/malate (50 μM/2 mM) (State 2) followed by the sequential addition of 2.5 mM ADP (State 3), […] Oligomycin (State 4p) and 1 μM FCCP (FCCP Max). Antimycin A (2.5 μM) was added last to measure the residual oxygen consumption not accounted for by the electron transfer chain and it was subtracted from the previous measurements.

NC(=O)c1ccc[n+]([C@@H]2O[C@H](CO)[C@@H](O)[C@H]2O)c1 [NR, Nicotinamide riboside chloride]
Atrial natriuretic peptide (Nppa) levels ([1]; Sirt3ko and WT TAC mice): decreased
Connective growth factor (Ctgf) levels ([1]; Sirt3ko and WT TAC mice): decreased
Expression of mtDNA encoded genes (mt-Nd1, mt-Cox1 and mt-Cytb) ([1]; TAC hearts, Sirt3Ko and WT): improved
Expression of nuclear DNA encoded ETC genes ([1]; TAC hearts, Sirt3Ko and WT): not changed
Expression of PPARα target genes (Acadm, Ucp2, Ucp3, Octn2, Cpt1b) ([1]; failing (TAC) hearts): increased
Accumulation of mitochondrial RNA precursor fragments (Nd1-Nd2, Cox1-Cox2 junctions) ([1]; failing hearts of WT and Sirt3Ko mice): removed the accumulation of RNA precursor fragments
Mitochondrial respiratory function (State 3 respiration) (cardiac mitochondria; TAC, Complex I substrates): improved
Palmitoylcarnitine (PLC) supported State 3 respiration (ADP stimulated) (cardiac mitochondria; cardiac mitochondria from ISO treated hearts, NR): restored
